41 compounds from US8461329B2, “Isoquinoline derivative” (Taisho Pharmaceutical Co., Ltd., priority 2008, dated 2013) can be followed below.

Molecules are shown by their SMILES. Like-named read-outs stand apart in the source and are kept apart here.

Test [1] has as its target T1, human CRTH2 expression cell KB8 (Homo sapiens, UniProt Q9Y5Y4).
T1 construct: host or cells: KB8 cells (human CRTH2 expression cell)
T1 sequence (Q9Y5Y4 1-395): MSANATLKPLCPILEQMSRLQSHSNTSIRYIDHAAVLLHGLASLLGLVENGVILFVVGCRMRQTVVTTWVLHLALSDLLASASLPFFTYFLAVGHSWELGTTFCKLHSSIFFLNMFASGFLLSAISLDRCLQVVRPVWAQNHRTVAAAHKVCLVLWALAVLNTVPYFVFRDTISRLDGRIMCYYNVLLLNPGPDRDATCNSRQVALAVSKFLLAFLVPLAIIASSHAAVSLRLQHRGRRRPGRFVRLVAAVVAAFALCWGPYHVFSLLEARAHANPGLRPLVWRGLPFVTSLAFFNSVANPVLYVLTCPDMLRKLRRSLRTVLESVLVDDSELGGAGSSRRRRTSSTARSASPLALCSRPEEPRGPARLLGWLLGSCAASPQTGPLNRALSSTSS
Briefly: CRTH2 binding test (3H-PGD2 binding to KB8 cells). The settings on record: 3H-PGD2 5 nM, 4° C., one hour, IC50 class, read-out: binding inhibitory activity. The protocol:
CRTH2 binding inhibitory activity of the compound of the present invention was considered by using a binding test between human CRTH2 expression cell KB8 (BML, INC.) and ^3H-labeled prostaglandin D2 (hereinafter, abbreviated as ^3H-PGD2, manufactured by GE Healthcare).
KB8 was suspended in a reaction buffer solution (Hank's balanced salt solution (Invitrogen) containing 10 mM HEPES (Invitrogen)), which was dispensed in a 96 well plate (Coaster) so that 2×10^5 cells/well are placed. Furthermore, the compound of the present invention and ^3H-PGD2 (final concentration: 5 nM) were added, stirred, and incubated at 4° C.
One hour later, cells were collected on GF/C Filter Plate (PerkinElmer) that had been pre-coated with 0.5% polyethyleneimine solution (SIGMA) by using a Cell Harvester (Packard BioScience), and the radioactivity of the cells was measured by using Top count NXT (PerkinElmer) (a value measured herein was represented by a measurement value “a”). The same procedure was carried out in the absence of the compound, and a measurement value “b” was obtained; and the same procedure was carried out in the absence of the compound and in the presence of non-labeled PGD2 (final concentration: 50 μM), a measurement value “c” was obtained.
The binding inhibition rate of the compound was calculated by the following calculation formula: Bonding inhibitory rate(%)=[1−(a−c)/(b−c)]×100
That is to say, by using binding inhibition rates of compounds to be tested having various concentrations, the IC50 value was calculated according to a dose-dependent inhibition curve analyzed by using XLfit (IDBS) as a data analysis software, and the calculated value was defined as an indicator of the inhibitory activity. In Table 9, A denotes an inhibitory activity showing the IC50 value of less than 50 nM; B denotes an inhibitory activity showing the IC50 value of 50 nM or greater and less than 500 nM; C denotes an inhibitory activity showing the IC50 value of 500 nM or greater and less than 1000 nM; and D denotes an inhibitory activity showing the IC50 value of 1000 nM or greater.

In another test the target is T2, CRTH2 (KB8 cells) (Homo sapiens, UniProt Q9Y5Y4).
T2 construct: host or cells: KB8 cells (human CRTH2 expression cell)
T2 sequence (Q9Y5Y4 1-395): T1 sequence (Q9Y5Y4 1-395)
Briefly: CRTH2 antagonist test (PGD2-induced intracellular calcium ion concentration increase in KB8 cells). The format is cell-based. In outline:
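Fluo-4-AM-loaded KB8 cells in HBSS with 10 mM HEPES and 1 mM CaCl2 received compound plus PGD2 (final 100 nM); peak fluorescence followed over time. Inhibition was computed against no-compound and unlabelled-PGD2 controls, and IC50 obtained from a dose-response curve.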
(Calcium assays in cells follow changes in intracellular calcium, usually with a dye or a luminescent sensor.)

The mark [2] stands for this setting: PGD2 final concentration 100 nM, Fluo-4-AM fluorescence, read-out: antagonist activity (IC50 value, inhibition of calcium ion concentration increase).
Setting [3] is: PGD2 100 nM, Fluo-4 calcium fluorescence, read-out: CRTH2 antagonist activity IC50 value.

On to `O=C(O)Cc1cnc(C(=O)c2ccc(NC(=O)c3ccccn3)cc2)c2ccccc12` [Example 16], for which the IC50 in test [1] is below 50 nM.

Take `O=C(O)Cc1cnc(C(=O)c2ccc(OCCCc3ccc(Cl)cc3)cc2)c2ccccc12` [Example 142]: the IC50 in test [1] was below 50 nM; on CRTH2 (KB8 cells) (setting [2]), 50 to 500 nM.

`O=C(O)Cc1cnc(C(=O)c2ccc(C(=O)Nc3ccc(Cl)c(Cl)c3)cc2)c2ccccc12` [Example 136]: the IC50 (in test [1]; on CRTH2 (KB8 cells) (setting [2])) was below 50 nM each time.

On to `O=C(O)Cc1cnc(C(=O)c2ccc(NC(=O)COc3ccc(Cl)c(Cl)c3)cc2)c2ccccc12` [Example 23], for which the IC50 (in test [1]; at CRTH2 (KB8 cells) (setting [2])) was below 50 nM in each case.

With `O=C(O)Cc1cnc(C(=O)c2ccc(NC(=O)C3(c4ccc(Cl)c(Cl)c4)CC3)cc2)c2ccccc12` [Example 5], the IC50 was below 50 nM in test [1] and 50 to 500 nM on CRTH2 (KB8 cells) (setting [2]).

Consider `O=C(O)Cc1cnc(Cc2ccc(NC(=O)c3ccc(Cl)c(Cl)c3)cc2)c2ccccc12` [Example 148, [1-(4-{[(3,4-dichlorophenyl)carbonyl]amino}benzyl)isoquinolin-4-yl]acetic acid], for which the IC50 (in test [1]; on CRTH2 (KB8 cells) (setting [2])) was below 50 nM each time.

Consider `Cc1ccc(C(=O)Nc2ccc(C(=O)c3ncc(CC(=O)O)c4ccccc34)cc2)cc1` [Example 17], for which the IC50 (in test [1]; at CRTH2 (KB8 cells) (setting [2])) was below 50 nM in each case.

Turning to `O=C(O)Cc1cnc(C(=O)c2ccc(OCCc3ccc(Cl)cc3)cc2)c2ccccc12` [Example 141, [1-({4-[2-(4-chlorophenyl)ethoxy]phenyl}carbonyl)isoquinolin-4-yl]acetic acid], the IC50 in test [1] is below 50 nM; at CRTH2 (KB8 cells) (setting [2]) it was 50 to 500 nM.

In the case of `O=C(O)Cc1cnc(C(=O)c2ccc(C(=O)NCCc3cccc(Cl)c3)cc2)c2ccccc12` [Example 139], the IC50 (in test [1]; on CRTH2 (KB8 cells) (setting [2])) was below 50 nM throughout.

Regarding `O=C(O)Cc1cnc(C(=O)c2ccc(NC(=O)c3ccc(Cl)cc3)cc2)c2ccccc12` [Example 29], the IC50 (in test [1]; at CRTH2 (KB8 cells) (setting [2])) was below 50 nM throughout.

On to `O=C(O)Cc1cnc(C(=O)c2ccc(NC(=O)CC3CCCCC3)cc2)c2ccccc12` [Example 21], for which the IC50 was below 50 nM in test [1] and 50 to 500 nM at CRTH2 (KB8 cells) (setting [2]).

As to `O=C(O)Cc1cnc(C(=O)c2ccc(NC(=O)c3ccc(Oc4ccccc4)cc3)cc2)c2ccccc12` [Example 9], the figures for the IC50 (in test [1]; on CRTH2 (KB8 cells) (setting [2])) were below 50 nM and 50 to 500 nM, respectively.

In the case of `O=C(O)Cc1cnc(C(=O)c2cccc(NC(=O)c3ccc(Cl)c(Cl)c3)c2)c2ccccc12` [Example 127, {1-[(3-{[(3,4-dichlorophenyl)carbonyl]amino}phenyl)carbonyl]isoquinolin-4-yl}acetic acid], the IC50 in test [1] fell in the range of 50 to 500 nM.

Turning to `O=C(O)Cc1cnc(C(=O)c2ccc(NC(=O)c3cc4cc(Cl)ccc4[nH]3)cc2)c2ccccc12` [Example 92], the IC50 (in test [1]; at CRTH2 (KB8 cells) (setting [2])) was below 50 nM each time.

Turning to `O=C(O)Cc1cnc(C(=O)c2ccc(NC(=O)c3cc4ccccc4o3)cc2)c2ccccc12` [Example 50], the IC50 (in test [1]; on CRTH2 (KB8 cells) (setting [2])) was below 50 nM each time.

As for `O=C(O)Cc1cnc(Cc2ccc(C(=O)NCCc3ccc(Cl)cc3)cc2)c2ccccc12` [Example 153, [1-(4-{[2-(4-chlorophenyl)ethyl]carbamoyl}benzyl)isoquinolin-4-yl]acetic acid], the IC50 in test [1] is below 50 nM; on CRTH2 (KB8 cells) (setting [3]) it was 12 nM; at CRTH2 (KB8 cells) (setting [2]), below 50 nM.

With `CC(=O)Nc1ccc(C(=O)c2ncc(CC(=O)O)c3ccccc23)cc1` [Example 19], the IC50 in test [1] fell in the range of 50 to 500 nM.

With `O=C(O)Cc1cnc(C(=O)c2ccc(Cc3ccccc3)cc2)c2ccccc12` [Example 144, {1-[(4-benzyl phenyl)carbonyl]isoquinolin-4-yl}acetic acid], in test [1], the IC50 was 50 to 500 nM.

`O=C(O)Cc1cnc(C(=O)c2ccc(NC(=O)C3CC3)cc2)c2ccccc12` [Example 20]: the IC50 in test [1] was below 50 nM.

As for `CN(C(=O)c1ccc(Cl)c(Cl)c1)c1ccc(C(=O)c2ncc(CC(=O)O)c3ccccc23)cc1` [Example 128, {1-[(4-{[(3,4-dichlorophenyl)carbonyl](methyl)amino}phenyl)carbonyl]isoquinolin-4-yl}acetic acid], in test [1], the IC50 lay in the range of 50 to 500 nM.

Consider `O=C(O)Cc1cnc(C(=O)c2ccc(NS(=O)(=O)c3ccc(Cl)c(Cl)c3)cc2)c2ccccc12` [Example 129, {1-[(4-{[(3,4-dichlorophenyl)sulfonyl]amino}phenyl)carbonyl]isoquinolin-4-yl}acetic acid], for which the IC50 in test [1] lay within 50 to 500 nM.

For `COc1cccc(C(=O)Nc2ccc(C(=O)c3ncc(CC(=O)O)c4ccccc34)cc2)c1` [Example 72], the IC50 on CRTH2 (KB8 cells) (setting [2]) was below 50 nM.

Take `O=C(O)Cc1cnc(Cc2ccc(C(=O)NCCc3ccc(Br)cc3)cc2)c2ccccc12` [Example 199]: the IC50 on CRTH2 (KB8 cells) (setting [2]) is below 50 nM.

For the compound `O=C(O)Cc1cnc(C(=O)c2ccc(NC(=O)c3cccnn3)cc2)c2ccccc12` [Example 98], at CRTH2 (KB8 cells) (setting [2]), the IC50 was at least 1000 nM.

Consider `O=C(O)Cc1cnc(C(=O)c2ccc(NC(=O)c3ccccc3)cc2)c2ccccc12` [Example 38], for which the IC50 at CRTH2 (KB8 cells) (setting [2]) was below 50 nM.

On to `Cc1cc(C)cc(CCNC(=O)c2ccc(Cc3ncc(CC(=O)O)c4ccccc34)cc2)c1` [Example 231], for which the IC50 at CRTH2 (KB8 cells) (setting [2]) was below 50 nM.

Turning to `O=C(O)Cc1cnc(C(=O)c2ccc(NC(=O)c3ccc(C(=O)c4ccccc4)cc3)cc2)c2ccccc12` [Example 91], on CRTH2 (KB8 cells) (setting [2]), the IC50 was below 50 nM.

With `O=C(O)Cc1cnc(Cc2ccc(C(=O)NCCc3cc(F)cc(F)c3)cc2)c2ccccc12` [Example 212], the IC50 on CRTH2 (KB8 cells) (setting [2]) fell in the range of 50 to 500 nM.

With `O=C(O)Cc1cnc(C(=O)c2ccc(NC(=O)c3cnccn3)cc2)c2ccccc12` [Example 69], at CRTH2 (KB8 cells) (setting [2]), the IC50 was at least 1000 nM.

As to `O=C(O)Cc1cnc(C(=O)c2ccc(NC(=O)c3cc(F)c(Cl)cc3Cl)cc2)c2ccccc12` [Example 56], the IC50 at CRTH2 (KB8 cells) (setting [2]) is 50 to 500 nM.

In the case of `O=C(O)Cc1cnc(C(=O)c2ccc(NC(=O)c3cn4ccccc4n3)cc2)c2ccccc12` [Example 121], on CRTH2 (KB8 cells) (setting [2]), the IC50 lay within 50 to 500 nM.

On to `CC(C)(C(=O)O)c1cnc(C(=O)c2ccc(C(=O)NCCc3ccc(Cl)cc3)cc2)c2ccccc12` [Example 255, 2-{1-[(4-{[2-(4-chlorophenyl)ethyl]carbamoyl}phenyl)carbonyl]isoquinolin-4-yl}-2-methylpropanoic acid], for which, on CRTH2 (KB8 cells) (setting [2]), the IC50 was at least 1000 nM.

`O=C(O)Cc1cnc(C(=O)c2ccc(NC(=O)c3ccc4occc4c3)cc2)c2ccccc12` [Example 116]: the IC50 at CRTH2 (KB8 cells) (setting [2]) is below 50 nM.

`COc1cc2c(CC(=O)O)cnc(C(=O)c3ccc(C(=O)NCCc4ccc(Cl)cc4)cc3)c2cc1OC` [Example 259, {1-[(4-{[2-(4-chlorophenyl)ethyl]carbamoyl}phenyl)carbonyl]-6,7-dimethoxyisoquinolin-4-yl}acetic acid]: the IC50 at CRTH2 (KB8 cells) (setting [2]) fell in the range of 50 to 500 nM.

Take `O=C(O)Cc1cnc(Cc2ccc(C(=O)NCCc3nc4ccccc4[nH]3)cc2)c2ccccc12` [Example 248]: the IC50 at CRTH2 (KB8 cells) (setting [2]) was in the range of 50 to 500 nM.

With `COc1ccc2[nH]c(C(=O)Nc3ccc(C(=O)c4ncc(CC(=O)O)c5ccccc45)cc3)cc2c1` [Example 96], the IC50 at CRTH2 (KB8 cells) (setting [2]) was below 50 nM.

Consider `O=C(O)Cc1cnc(Cc2ccc(C(=O)NCCc3cc4cc(Cl)ccc4[nH]3)cc2)c2ccccc12` [Example 234], for which the IC50 on CRTH2 (KB8 cells) (setting [3]) is 5.9 nM; at CRTH2 (KB8 cells) (setting [2]), below 50 nM.

On to `O=C(O)Cc1cnc(Cc2ccc(C(=O)NCCc3cc(F)cc(Cl)c3)cc2)c2ccccc12` [Example 216], for which the IC50 on CRTH2 (KB8 cells) (setting [2]) fell in the range of 50 to 500 nM.

`O=C(O)Cc1cnc(Cc2ccc(C(=O)NCCCc3ccc(Cl)cc3)cc2)c2ccccc12` [Example 164]: at CRTH2 (KB8 cells) (setting [2]), the IC50 is below 50 nM.

Consider `O=C(O)Cc1cnc(C(=O)c2ccc(NC(=O)c3c(Cl)cc(Cl)cc3Cl)cc2)c2ccccc12` [Example 48], for which the IC50 at CRTH2 (KB8 cells) (setting [2]) was at least 1000 nM.

Regarding `CNC(=O)c1ccc(Cc2ncc(CC(=O)O)c3ccccc23)cc1` [Example 220], at CRTH2 (KB8 cells) (setting [2]), the IC50 is at least 1000 nM.
